Here are results for 24 molecules from ChEMBL document CHEMBL3108693, “Design, synthesis, and osteogenic activity of daidzein analogs on human mesenchymal stem cells” (2014).

Active and inactive are the calls of the source. The calls are words filed in the database; no cut-off is given here.

What all share (assay type): functional
The test system of experiment [1] is MSC. As to the kind of experiment: Induction of osteogenic activity in human MSC assessed as cell differentiation after 14 days by alizarin red staining-based spectrometry relative to vehicle-treated control.
Experiment [2] deals with MSC. Description: Induction of osteogenic activity in human MSC assessed as cell differentiation at 1 uM after 7 days by alizarin red staining-based spectrometry relative to vehicle-treated control.
Experiment [3] is described as follows: (§1) Induction of osteogenic activity in human MSC assessed as cell differentiation at 1 uM after 14 days by alizarin red staining-based spectrometry relative to vehicle-treated control.
The test system of experiment [4] is MSC. The description is as §1.
For experiment [5], the system named is MSC. Description: Induction of osteogenic activity in human MSC assessed as increase in ON level at 1 uM after 14 days by quantitative RT-PCR analysis relative to control.
In experiment [6] the test system is MSC. Description: Induction of osteogenic activity in human MSC assessed as increase in Dlx5 level at 1 uM after 14 days by quantitative RT-PCR analysis relative to control.
Experiment [7] deals with MSC. Description: Induction of osteogenic activity in human MSC assessed as increase in cFOS level at 1 uM after 14 days by quantitative RT-PCR analysis relative to control.
The subject of experiment [8] is MSC. Description: Induction of osteogenic activity in human MSC assessed as increase in cbfa1 level at 1 uM after 14 days by quantitative RT-PCR analysis relative to control.
Experiment [9] has as its system MSC. Description: Induction of osteogenic activity in human MSC assessed as increase in Cola1 level at 1 uM after 14 days by quantitative RT-PCR analysis relative to control.
In experiment [10] the test system is MSC. As to the kind of experiment: Induction of osteogenic activity in human MSC assessed as increase in IGF1 level at 1 uM after 14 days by quantitative RT-PCR analysis relative to control.
The subject of experiment [11] is MSC. Description: Induction of osteogenic activity in human MSC assessed as increase in OP level at 1 uM after 14 days by quantitative RT-PCR analysis relative to control.
Experiment [12] deals with MSC. As to the kind of experiment: Induction of osteogenic activity in human MSC assessed as increase in Sp7 level at 1 uM after 14 days by quantitative RT-PCR analysis relative to control.
For experiment [13], the system named is MSC. Description: Induction of osteogenic activity in human MSC assessed as increase in ALP level at 1 uM after 14 days by quantitative RT-PCR analysis relative to control.
Experiment [14] relates to MSC. Description: Induction of osteogenic activity in human MSC assessed as cell differentiation at 10 nM after 14 days by alizarin red staining-based spectrometry.

With `O=c1c(-c2ccc(O)cc2)coc2cc(OC3CCCC3)ccc12`, the Activity entry in the experiment with MSC [1] is “Dose-dependent effect”. Moreover, in the experiment with MSC [2], the result was Active. Moreover, the “fold change (FC)” value in experiment [3] is on record as 1.3.
For `CC1(C)C=Cc2cc3c(cc2O1)OCC(c1ccc(O)cc1)C3` (centres undefined), in the experiment on MSC [1], the Activity result is “Dose-dependent effect”. In addition, in [3], the “fold change (FC)” value was 1.3.
In the same order, the values of `CCCCCCOc1ccc2c(=O)c(-c3ccc(O)cc3)coc2c1` are “Dose-dependent effect” and 1.3.
For `COc1ccc(C(=O)Nc2ccc(OCC(C)C)cc2)c(OC)c1` the same measures were “Dose-dependent effect” and 1.6.
Take `CN(C)CCOc1ccc2c(=O)c(-c3ccc(O)cc3)coc2c1`: the Activity entry with MSC [1] was “Dose-dependent effect”.
Consider `O=c1c(-c2ccc(O)cc2)coc2cc(O)ccc12`, for which the Activity result in the experiment with MSC [1] is “Dose-dependent effect”. Also, the outcome in the experiment on MSC [4] was Active.
Turning to `CCCCOc1ccc2c(=O)c(-c3ccc(O)cc3)coc2c1`, the Activity result in the experiment on MSC [1] is “Dose-dependent effect”. In addition, in experiment [3], the “fold change (FC)” value was determined as 1.3.
In the same order, the values of `C#CCOc1ccc2c(=O)c(-c3ccc(O)cc3)coc2c1` are “Dose-dependent effect” and 1.6.
For `CCOc1ccc2c(=O)c(-c3ccc(O)cc3)coc2c1` the same measures were “Dose-dependent effect” and 1.6.
With `Cc1cc2c(ccc3c(=O)c(-c4ccc(O)cc4)coc32)o1`, the Activity entry with MSC [1] is “Dose-dependent effect”. Besides, in experiment [3], the “fold change (FC)” value turned out to be 1.6.
As for `C=CCOc1ccc2c(=O)c(-c3ccc(O)cc3)coc2c1`, the Activity entry with MSC [1] was “Dose-dependent effect”. In the experiment on MSC [2], the result was Active. The “fold change (FC)” value in experiment [3] was found to be 1.3.
Take `CC(C)Oc1ccc2c(=O)c(-c3ccc(O)cc3)coc2c1`: in the experiment with MSC [1], the Activity entry is “Dose-dependent effect”. In addition, in [3], the “fold change (FC)” value was found to be 1.6.
Regarding `CCCOc1ccc2c(=O)c(-c3ccc(O)cc3)coc2c1`, the Activity entry in the experiment on MSC [1] was “Dose-dependent effect”. Further, the result with MSC [5], in the experiment on MSC [6], with MSC [7] and with MSC [8] was inactive. The outcome in the experiment on MSC [9], in the experiment with MSC [10], with MSC [11], in the experiment with MSC [12], in the experiment with MSC [13] and in the experiment with MSC [2] was Active. Besides, in [3], the “fold change (FC)” value is 1.3.
In the case of `CC1(C)C=Cc2c(ccc3c(=O)c(-c4ccc(B5OC(C)(C)C(C)(C)O5)cc4)coc23)O1`, the Activity result with MSC [1] is “Dose-dependent effect”.
Regarding `O=c1c(-c2ccc(O)cc2)coc2cc(OCCN3CCCCC3)ccc12`, the Activity result in the experiment on MSC [1] was “Dose-dependent effect”. Also, the “fold change (FC)” value in experiment [3] is on record as more than 2.4.
`CC#C[C@]1(O)CC[C@H]2[C@@H]3CCc4cc(O)ccc4[C@H]3CC[C@@]21C`: in the experiment on MSC [14], the result was Active.
For the molecule `COc1ccc(C(=O)Nc2ccc(O)cc2)c(OC)c1`, the Activity result in the experiment on MSC [1] was “Dose-dependent effect”. The “fold change (FC)” value in experiment [3] came out at 1.3.
In the same order, the values of `CC1(C)CCc2c(ccc3c2OCC(c2ccc(O)cc2)C3=O)O1` (centres undefined) are “Dose-dependent effect” and 1.6.
Consider `CC(C)COc1ccc2c(=O)c(-c3ccc(O)cc3)coc2c1`, for which the Activity entry with MSC [1] is “Dose-dependent effect”. Further, the outcome in the experiment on MSC [2] was Active. For the same molecule, the “fold change (FC)” value in [3] came out at 1.3.
With `CC1(C)C=Cc2c(ccc3c(=O)c(-c4ccc(O)cc4)coc23)O1`, the Activity result with MSC [1] is “Dose-dependent effect”.
As for `O=c1c(-c2ccc(O)cc2)coc2cc(OCCN3CCCC3)ccc12`, the Activity entry with MSC [1] was “Dose-dependent effect”.
`COc1ccc(NC(=O)c2ccc(OC)cc2OC)cc1`: in the experiment with MSC [1], the Activity result was “Dose-dependent effect”. Moreover, the “fold change (FC)” value in experiment [3] worked out at 1.3.
For `CCCCOc1ccc2c(c1)OCC(c1ccc(O)cc1)C2` (centres undefined), the Activity entry in the experiment with MSC [1] is “Dose-dependent effect”.
Same read-out and setting: for `CC1(C)CCc2c(ccc3c2OCC(c2ccc(O)cc2)C3)O1` (centres undefined) the value was “Dose-dependent effect”.
